Data from patent publication US20230322723A1, “COMPOUNDS FOR SUPPRESSING EGFR MUTANT CANCER AND PHARMACEUTICAL USE THEREOF” (J2H BIOTECH INC., priority 2020, published 2023).

Columns and labels:
EGFR^del19+T790M+C797S = experiment: EGFR protein degradation test (Western blot) in Ba/F3 cells expressing mutant EGFR del19+T790M+C797S (DTC); assay type: cell-based; settings: compounds at 0.1 μM and 1 μM, 24 hours, Western blot with EGFR antibody
Procedure, shortened: (§1)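 EGFR protein level was measured by Western blot on 30 μg lysate, bands quantified by imager. Lysates came from Ba/F3 lines carrying normal, LTC or DTC mutant EGFR, exposed 24 h to compound at 0.1 and 1 μM.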

EGFR^L858R+T790M+C797S = molecular target: T1, EGFR^L858R+T790M+C797S (Homo sapiens, UniProt P00533, C797S/L858R/T790M); experiment: EGFR protein degradation test (Western blot) in Ba/F3 cells expressing mutant EGFR L858R+T790M+C797S (LTC); assay type: cell-based; settings: compounds at 0.1 μM and 1 μM, 24 hours, Western blot with EGFR antibody
T1 construct: expressed in transfected cells; host or cells: Ba/F3
T1 sequence (P00533 25-1210 T790M/C797S/L858R): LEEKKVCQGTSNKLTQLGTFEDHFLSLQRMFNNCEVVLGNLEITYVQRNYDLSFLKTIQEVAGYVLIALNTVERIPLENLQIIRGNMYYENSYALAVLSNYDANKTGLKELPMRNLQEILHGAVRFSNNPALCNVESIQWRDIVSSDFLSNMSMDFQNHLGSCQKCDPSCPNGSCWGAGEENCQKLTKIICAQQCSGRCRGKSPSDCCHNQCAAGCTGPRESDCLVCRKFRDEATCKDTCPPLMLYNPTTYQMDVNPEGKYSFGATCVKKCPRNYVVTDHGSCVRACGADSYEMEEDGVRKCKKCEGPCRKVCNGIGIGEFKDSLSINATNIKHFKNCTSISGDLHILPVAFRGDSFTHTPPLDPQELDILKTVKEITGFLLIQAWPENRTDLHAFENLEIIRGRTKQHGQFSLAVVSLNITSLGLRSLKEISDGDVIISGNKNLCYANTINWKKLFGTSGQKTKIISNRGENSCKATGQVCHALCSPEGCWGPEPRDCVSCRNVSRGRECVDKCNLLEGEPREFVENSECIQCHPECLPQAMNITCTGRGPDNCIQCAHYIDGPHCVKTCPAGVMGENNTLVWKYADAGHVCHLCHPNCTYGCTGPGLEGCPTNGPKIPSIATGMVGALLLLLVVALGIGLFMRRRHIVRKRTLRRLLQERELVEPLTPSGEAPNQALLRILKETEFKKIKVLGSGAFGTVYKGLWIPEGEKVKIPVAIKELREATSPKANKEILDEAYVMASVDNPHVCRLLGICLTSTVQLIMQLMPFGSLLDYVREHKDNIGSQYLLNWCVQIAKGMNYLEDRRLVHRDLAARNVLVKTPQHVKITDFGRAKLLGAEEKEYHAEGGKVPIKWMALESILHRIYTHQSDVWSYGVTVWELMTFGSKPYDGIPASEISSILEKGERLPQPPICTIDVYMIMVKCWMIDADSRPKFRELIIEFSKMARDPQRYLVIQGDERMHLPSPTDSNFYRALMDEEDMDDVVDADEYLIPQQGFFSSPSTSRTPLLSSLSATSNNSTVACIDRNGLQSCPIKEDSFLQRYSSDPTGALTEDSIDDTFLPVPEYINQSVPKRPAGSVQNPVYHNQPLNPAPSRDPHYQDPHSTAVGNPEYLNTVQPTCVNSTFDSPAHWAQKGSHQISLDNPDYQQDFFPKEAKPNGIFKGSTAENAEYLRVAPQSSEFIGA
Procedure, shortened: as §1

[1] = Pharmacokinetic evaluation after single oral administration to ICR mice; assay type: in vivo; settings: for half-life / AUC(0-t): mouse, ICR mice, single oral dose 5 mg/kg, plasma; for AUC(0-t): read-out: AUC0-24
Procedure, shortened: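 ICR mice received a single oral dose of 5 mg/kg suspended in 10% DMSO/90% (30% HPbCD aqueous solution). Plasma concentrations over time were measured by LC-MS/MS after methanol precipitation. AUC0-t, AUC0-∞, Cmax, Tmax and t1/2 came from noncompartmental analysis, given as mean and SD.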

[2] = 74, 76, 77, 80, 81 vs 45, 71, 51, 65, 53
[3] = 69, 70, 75, 78, 82 vs compounds 53 and 65

| SMILES | DTC (EGFR^del19+T790M+C797S) protein degradation (EGFR^del19+T790M+C797S) | LTC (EGFR^L858R+T790M+C797S) protein degradation (EGFR^L858R+T790M+C797S) | AUC compared to the corresponding compounds [1, 2] | half-life [1] [h] | AUC(0-t) [1] [ng·h/mL] | AUC compared to the corresponding compounds [1, 3] |
| --- | --- | --- | --- | --- | --- | --- |
| COc1cc(N2CCC(N3CCN(CCNc4cccc5c4C(=O)N(C4CCC(=O)NC4=O)C5=O)CC3)CC2)c(C)cc1Nc1ncc(Cl)c(Nc2ccccc2N(C)S(C)(=O)=O)n1 (centres unmarked) [Compound 74, N-(2-((5-chloro-2-((4-(4-(4-(2-((2-(2,6-dioxopiperidin-3-yl)-1,3-dioxoisoindolin-4-yl)amino)ethyl)piperazin-1-yl)piperidin-1-yl)-2-methoxy-5-methylphenyl)amino)pyrimidin-4-yl)amino)phenyl)-N-methylmethanesulfonamide] | − (Protein degradation < 20%) | ++ (Protein degradation > 80%) | significantly improved AUC | 4.44 | 5520 | – |
| COc1cc(N2CCN(CC3CCN(C(=O)[C@H](C)Nc4cccc5c4C(=O)N(C4CCC(=O)NC4=O)C5=O)CC3)CC2)c(C)cc1Nc1ncc(Cl)c(Nc2ccccc2N(C)S(C)(=O)=O)n1 (stereo partly drawn) [Compound 75, N-(2-((5-chloro-2-((4-(4-((1-((2-(2,6-dioxopiperidin-3-yl)-1,3-dioxoisoindolin-4-yl)-L-alanyl)piperidin-4-yl)methyl)piperazin-1-yl)-2-methoxy-5-methylphenyl)amino)pyrimidin-4-yl)amino)phenyl)-N-methylmethanesulfonamide] | ++ (Protein degradation > 80%) | ++ (Protein degradation > 80%) | – | 2.82 | 2040 | significantly improved AUC |
| COc1cc(N2CCC(N3CCN(CC4CCN(c5ccc6c(c5)C(=O)N(C5CCC(=O)NC5=O)C6=O)CC4)CC3)CC2)c(C)cc1Nc1ncc(Cl)c(Nc2ccccc2N(C)S(C)(=O)=O)n1 (centres unmarked) [Compound 76, N-(2-((5-chloro-2-((4-(4-(4-((1-(2-(2,6-dioxopiperidin-3-yl)-1,3-dioxoisoindolin-5-yl)piperidin-4-yl)methyl)piperazin-1-yl)piperidin-1-yl)-2-methoxy-5-methylphenyl)amino)pyrimidin-4-yl)amino)phenyl)-N-methylmethanesulfonamide] | + (Protein degradation 20~80%) | ++ (Protein degradation > 80%) | significantly improved AUC | 6.66 | 5240 | – |
| COc1cc(N2CCC(N3CCN(CCC4CCN(c5ccc6c(c5)C(=O)N(C5CCC(=O)NC5=O)C6=O)CC4)CC3)CC2)c(C)cc1Nc1ncc(Cl)c(Nc2ccccc2N(C)S(C)(=O)=O)n1 (centres unmarked) [Compound 77, N-(2-((5-chloro-2-((4-(4-(4-(2-(1-(2-(2,6-dioxopiperidin-3-yl)-1,3-dioxoisoindolin-5-yl)piperidin-4-yl)ethyl)piperazin-1-yl)piperidin-1-yl)-2-methoxy5-methylphenyl)amino)pyrimidin-4-yl)amino)phenyl)-N-methylmethanesulfonamide] | + (Protein degradation 20~80%) | ++ (Protein degradation > 80%) | significantly improved AUC | 2.96 | 1170 | – |
| COc1cc(N2CCC(CN3CCN(C(=O)[C@H](C)Nc4cccc5c4C(=O)N(C4CCC(=O)NC4=O)C5=O)CC3)CC2)c(C)cc1Nc1ncc(Cl)c(Nc2ccccc2N(C)S(C)(=O)=O)n1 (stereo partly drawn) [Compound 78, N-(2-((5-chloro-2-((4-(4-((4-((2-(2,6-dioxopiperidin-3-yl)-1,3-dioxoisoindolin-4-yl)-L-alanyl)piperazin-1-yl)methyl)piperidin-1-yl)-2-methoxy-5-methylphenyl)amino)pyrimidin-4-yl)amino)phenyl)-N-methylmethanesulfonamide] | ++ (Protein degradation > 80%) | ++ (Protein degradation > 80%) | – | 3.75 | 5740 | significantly improved AUC |
| COc1cc(N2CCC(CN3CCN(c4ccc5c(c4)C(=O)N(C4CCC(=O)NC4=O)C5=O)CC3)CC2)c(C)cc1Nc1ncc(Cl)c(Nc2ccccc2N(C)S(C)(=O)=O)n1 (centres unmarked) [Compound 79, N-(2-((5-chloro-2-((4-(4-((4-(2-(2,6-dioxopiperidin-3-yl)-1,3-dioxoisoindolin-5-yl)piperazin-1-yl)methyl)piperidin-1-yl)-2-methoxy-5-methylphenyl)amino)pyrimidin-4-yl)amino)phenyl)-N-methylmethanesulfonamide] | − (Protein degradation < 20%) | + (Protein degradation 20~80%) | – | 3.47 | 1130 | – |
| COc1cc(N2CCN(CC3CCN(C(=O)CNc4cccc5c4C(=O)N(C4CCC(=O)NC4=O)C5=O)CC3)CC2)c(C)cc1Nc1ncc(Cl)c(Nc2ccccc2N(C)S(C)(=O)=O)n1 (centres unmarked) [Compound 80, N-(2-((5-chloro-2-((4-(4-((1-((2-(2,6-dioxopiperidin-3-yl)-1,3-dioxoisoindolin-4-yl)glycyl)piperidin-4-yl)methyl)piperazin-1-yl)-2-methoxy-5-methylphenyl)amino)pyrimidin-4-yl)amino)phenyl)-N-methylmethanesulfonamide] | ++ (Protein degradation > 80%) | ++ (Protein degradation > 80%) | significantly improved AUC | 3.55 | 1040 | – |
| COc1cc(N2CCN(CC3CCN(C(=O)COc4cccc5c4C(=O)N(C4CCC(=O)NC4=O)C5=O)CC3)CC2)c(C)cc1Nc1ncc(Cl)c(Nc2ccccc2N(C)S(C)(=O)=O)n1 (centres unmarked) [Compound 81, N-(2-((5-chloro-2-((4-(4-((1-(2-((2-(2,6-dioxopiperidin-3-yl)-1,3-dioxoisoindolin-4-yl)oxy)acetyl)piperidin-4-yl)methyl)piperazin-1-yl)-2-methoxy-5-methylphenyl)amino)pyrimidin-4-yl)amino)phenyl)-N-methylmethanesulfonamide] | ++ (Protein degradation > 80%) | ++ (Protein degradation > 80%) | significantly improved AUC | 4.73 | 502 | – |
| COc1cc(N2CCN(CC3CCN(C(=O)[C@H](C)Oc4cccc5c4C(=O)N(C4CCC(=O)NC4=O)C5=O)CC3)CC2)c(C)cc1Nc1ncc(Cl)c(Nc2ccccc2N(C)S(C)(=O)=O)n1 (stereo partly drawn) [Compound 82, N-(2-((5-chloro-2-((4-(4-((1-((2S)-2-((2-(2,6-dioxopiperidin-3-yl)-1,3-dioxoisoindolin-4-yl)oxy)propanoyl)piperidin-4-yl)methyl)piperazin-1-yl)-2-methoxy-5-methylphenyl)amino)pyrimidin-4-yl)amino)phenyl)-N-methylmethanesulfonamide] | ++ (Protein degradation > 80%) | ++ (Protein degradation > 80%) | – | 6.03 | 366 | significantly improved AUC |
